Data: US20040022780A1, “Serine protease and topical retinoid compositions useful for treatment of acne vulgarise and production of anti-aging effects” (priority 1997, published 2004)

System: Rhino mouse skin
Test: Histology after suboptimal trypsin, all-trans retinoic acid or both
Type: in vivo
Details: suboptimal dose alone: 0.005% (w/v) trypsin or 0.0005% (w/v) all-trans retinoic acid
Description: A first set of Rhino mice of Example 1 were treated with suboptimal doses of the trypsin composition of Example 2. […] A second set of Rhino mice of Example 1 were treated with suboptimal concentrations of the all-trans retinoic acid composition of Example 2. A third set of Rhino mice of Example 1 were treated with both suboptimal doses of the trypsin composition of Example 2 and the all-trans retinoic acid composition of Example 2. In this third set of Rhino mice, the trypsin and all-trans retinoic acid treatments were each administered daily, but at different times (i.e. trypsin in the morning and all-trans retinoic acid in the afternoon). Mice were sacrificed and their skins were examined histologically with the procedure set forth in Example 3.

In the case of `CC1=C(/C=C/C(C)=C/C=C/C(C)=C/C(=O)O)C(C)(C)CCC1` [all-trans retinoic acid, reference compound], the “skin histology of treatment given alone vs untreated skin” value is reported as “marked inprovement”.
